Assay results reported in the kinase profiling compilation of Christmann-Franck et al. (2016).

Legend:
Experiment in all cases: KINOMEscan competition binding
Details in all cases: compound 10.0 µM
[1] = biological target: DYRK1B (human) (UniProt Q9Y463)
[2] = biological target: DDR2 (human) (UniProt Q16832)
[3] = biological target: EPHB4 (human) (UniProt P54760)
[4] = biological target: MAP3K10 (human) (UniProt Q02779)
[5] = biological target: AURKC (human) (UniProt Q9UQB9)
[6] = biological target: STK3 (human) (UniProt Q13188)
[7] = biological target: MYLK4 (human) (UniProt Q86YV6)
[8] = biological target: ACVR2B (human) (UniProt Q13705)
[9] = biological target: AURKA (human) (UniProt O14965)
[10] = biological target: MYO3A (human) (UniProt Q8NEV4)
[11] = biological target: FES (human) (UniProt P07332)
[12] = biological target: STK32C (human) (UniProt Q86UX6)
[13] = biological target: EPHA3 (human) (UniProt P29320)
[14] = biological target: FLT4 (human) (UniProt P35916)
[15] = biological target: PKMYT1 (human) (UniProt Q99640)
Sequence of PKMYT1 (human) (Q99640 whole entry, looked up): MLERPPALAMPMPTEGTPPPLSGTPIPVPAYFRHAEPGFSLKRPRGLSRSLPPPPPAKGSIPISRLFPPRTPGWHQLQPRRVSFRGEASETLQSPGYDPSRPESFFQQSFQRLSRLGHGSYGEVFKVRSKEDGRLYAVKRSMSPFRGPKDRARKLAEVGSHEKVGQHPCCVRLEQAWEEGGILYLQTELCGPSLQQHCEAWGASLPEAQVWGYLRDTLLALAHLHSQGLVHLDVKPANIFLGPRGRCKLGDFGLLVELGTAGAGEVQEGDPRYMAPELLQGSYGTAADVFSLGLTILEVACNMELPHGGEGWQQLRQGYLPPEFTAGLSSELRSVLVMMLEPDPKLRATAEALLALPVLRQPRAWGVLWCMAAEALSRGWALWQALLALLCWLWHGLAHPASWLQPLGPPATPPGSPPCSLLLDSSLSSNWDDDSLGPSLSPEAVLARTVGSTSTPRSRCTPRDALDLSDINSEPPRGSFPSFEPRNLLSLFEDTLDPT

[16] = biological target: TYRO3 (human) (UniProt Q06418)
Sequence of TYRO3 (human) (Q06418 whole entry, looked up): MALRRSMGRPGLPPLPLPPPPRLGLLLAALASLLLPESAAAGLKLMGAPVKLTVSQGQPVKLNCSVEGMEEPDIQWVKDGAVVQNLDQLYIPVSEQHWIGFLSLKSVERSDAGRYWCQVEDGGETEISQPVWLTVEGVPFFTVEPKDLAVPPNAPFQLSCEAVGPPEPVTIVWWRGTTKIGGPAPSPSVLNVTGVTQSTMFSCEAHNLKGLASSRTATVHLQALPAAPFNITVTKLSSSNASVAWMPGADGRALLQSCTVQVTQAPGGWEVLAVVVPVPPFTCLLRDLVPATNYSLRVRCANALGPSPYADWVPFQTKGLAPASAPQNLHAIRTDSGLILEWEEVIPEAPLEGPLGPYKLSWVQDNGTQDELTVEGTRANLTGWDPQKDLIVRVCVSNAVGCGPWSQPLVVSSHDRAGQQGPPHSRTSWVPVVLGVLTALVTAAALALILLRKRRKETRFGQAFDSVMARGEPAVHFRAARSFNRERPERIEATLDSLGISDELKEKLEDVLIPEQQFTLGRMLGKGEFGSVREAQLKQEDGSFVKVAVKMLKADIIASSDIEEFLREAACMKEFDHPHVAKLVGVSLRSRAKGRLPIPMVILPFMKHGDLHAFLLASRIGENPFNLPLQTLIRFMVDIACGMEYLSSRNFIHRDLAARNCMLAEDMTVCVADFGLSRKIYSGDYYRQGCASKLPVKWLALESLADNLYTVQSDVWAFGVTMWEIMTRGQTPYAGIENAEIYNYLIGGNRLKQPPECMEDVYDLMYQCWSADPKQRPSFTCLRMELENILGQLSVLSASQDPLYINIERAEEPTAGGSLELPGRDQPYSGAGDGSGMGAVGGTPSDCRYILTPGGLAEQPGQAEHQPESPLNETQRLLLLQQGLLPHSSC

[17] = biological target: CDKL2 (human) (UniProt Q92772)
[18] = biological target: MAPK13 (human) (UniProt O15264)
[19] = biological target: JAK3 JH1 catalytic (human) (UniProt P52333)
[20] = biological target: MKNK1 (human) (UniProt Q9BUB5)
[21] = biological target: DAPK3 (human) (UniProt O43293)
[22] = biological target: STK17A (human) (UniProt Q9UEE5)
[23] = biological target: CSNK1G3 (human) (UniProt Q9Y6M4)
[24] = biological target: JAK1 JH2 pseudokinase (human) (UniProt P23458)
[25] = biological target: PHKG2 (human) (UniProt P15735)
[26] = biological target: RPS6KA5 KD1 (human) (UniProt O75582)
[27] = biological target: TXK (human) (UniProt P42681)
[28] = biological target: MARK2 (human) (UniProt Q7KZI7)
[29] = biological target: RPS6KA1 KD1 (human) (UniProt Q15418)
[30] = biological target: ACVRL1 (human) (UniProt P37023)
[31] = biological target: PAK4 (human) (UniProt O96013)
Sequence of PAK4 (human) (O96013 whole entry, looked up): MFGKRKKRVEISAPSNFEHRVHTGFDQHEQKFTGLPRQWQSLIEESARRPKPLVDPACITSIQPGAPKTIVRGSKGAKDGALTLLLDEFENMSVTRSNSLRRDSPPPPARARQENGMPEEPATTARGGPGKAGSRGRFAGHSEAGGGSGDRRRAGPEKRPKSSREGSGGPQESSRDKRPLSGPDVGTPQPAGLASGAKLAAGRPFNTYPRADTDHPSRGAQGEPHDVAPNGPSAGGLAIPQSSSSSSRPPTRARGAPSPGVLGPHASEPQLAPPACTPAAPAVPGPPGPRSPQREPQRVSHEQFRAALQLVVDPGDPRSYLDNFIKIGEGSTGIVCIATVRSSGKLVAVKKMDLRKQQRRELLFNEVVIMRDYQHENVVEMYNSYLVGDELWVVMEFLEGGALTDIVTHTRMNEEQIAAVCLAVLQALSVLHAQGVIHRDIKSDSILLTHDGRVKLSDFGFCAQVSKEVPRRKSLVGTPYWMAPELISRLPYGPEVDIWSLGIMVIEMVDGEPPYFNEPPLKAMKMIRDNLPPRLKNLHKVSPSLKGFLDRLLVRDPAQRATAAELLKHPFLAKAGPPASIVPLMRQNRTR

[32] = biological target: NLK (human) (UniProt Q9UBE8)
[33] = biological target: WEE2 (human) (UniProt P0C1S8)
[34] = biological target: AKT1 (human) (UniProt P31749)
[35] = biological target: MAP3K11 (human) (UniProt Q16584)
Sequence of MAP3K11 (human) (Q16584 whole entry, looked up): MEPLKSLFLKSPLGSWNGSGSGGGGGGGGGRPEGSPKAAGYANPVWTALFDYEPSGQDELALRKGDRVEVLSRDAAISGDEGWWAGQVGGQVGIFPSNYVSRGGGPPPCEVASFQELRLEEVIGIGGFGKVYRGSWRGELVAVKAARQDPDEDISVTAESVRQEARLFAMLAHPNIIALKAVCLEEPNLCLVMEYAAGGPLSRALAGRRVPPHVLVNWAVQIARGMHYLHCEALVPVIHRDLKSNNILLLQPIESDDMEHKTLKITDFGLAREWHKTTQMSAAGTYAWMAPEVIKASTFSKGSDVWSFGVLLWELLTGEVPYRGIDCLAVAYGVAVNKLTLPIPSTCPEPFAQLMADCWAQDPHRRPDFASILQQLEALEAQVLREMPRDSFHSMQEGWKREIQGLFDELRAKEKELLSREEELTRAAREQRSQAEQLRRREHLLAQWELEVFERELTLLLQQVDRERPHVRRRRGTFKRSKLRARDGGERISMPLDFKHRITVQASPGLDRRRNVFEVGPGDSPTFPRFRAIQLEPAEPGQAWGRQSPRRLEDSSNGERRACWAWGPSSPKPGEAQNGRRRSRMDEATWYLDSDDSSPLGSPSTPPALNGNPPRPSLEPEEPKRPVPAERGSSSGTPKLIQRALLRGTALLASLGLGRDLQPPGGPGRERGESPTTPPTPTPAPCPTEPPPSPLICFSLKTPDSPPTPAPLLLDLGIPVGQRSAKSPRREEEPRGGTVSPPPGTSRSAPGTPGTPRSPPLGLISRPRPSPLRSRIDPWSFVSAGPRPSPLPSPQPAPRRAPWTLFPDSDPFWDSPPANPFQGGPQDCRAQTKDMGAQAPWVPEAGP

[36] = biological target: PIK3CD (human) (UniProt O00329)
Sequence of PIK3CD (human) (O00329 whole entry, looked up): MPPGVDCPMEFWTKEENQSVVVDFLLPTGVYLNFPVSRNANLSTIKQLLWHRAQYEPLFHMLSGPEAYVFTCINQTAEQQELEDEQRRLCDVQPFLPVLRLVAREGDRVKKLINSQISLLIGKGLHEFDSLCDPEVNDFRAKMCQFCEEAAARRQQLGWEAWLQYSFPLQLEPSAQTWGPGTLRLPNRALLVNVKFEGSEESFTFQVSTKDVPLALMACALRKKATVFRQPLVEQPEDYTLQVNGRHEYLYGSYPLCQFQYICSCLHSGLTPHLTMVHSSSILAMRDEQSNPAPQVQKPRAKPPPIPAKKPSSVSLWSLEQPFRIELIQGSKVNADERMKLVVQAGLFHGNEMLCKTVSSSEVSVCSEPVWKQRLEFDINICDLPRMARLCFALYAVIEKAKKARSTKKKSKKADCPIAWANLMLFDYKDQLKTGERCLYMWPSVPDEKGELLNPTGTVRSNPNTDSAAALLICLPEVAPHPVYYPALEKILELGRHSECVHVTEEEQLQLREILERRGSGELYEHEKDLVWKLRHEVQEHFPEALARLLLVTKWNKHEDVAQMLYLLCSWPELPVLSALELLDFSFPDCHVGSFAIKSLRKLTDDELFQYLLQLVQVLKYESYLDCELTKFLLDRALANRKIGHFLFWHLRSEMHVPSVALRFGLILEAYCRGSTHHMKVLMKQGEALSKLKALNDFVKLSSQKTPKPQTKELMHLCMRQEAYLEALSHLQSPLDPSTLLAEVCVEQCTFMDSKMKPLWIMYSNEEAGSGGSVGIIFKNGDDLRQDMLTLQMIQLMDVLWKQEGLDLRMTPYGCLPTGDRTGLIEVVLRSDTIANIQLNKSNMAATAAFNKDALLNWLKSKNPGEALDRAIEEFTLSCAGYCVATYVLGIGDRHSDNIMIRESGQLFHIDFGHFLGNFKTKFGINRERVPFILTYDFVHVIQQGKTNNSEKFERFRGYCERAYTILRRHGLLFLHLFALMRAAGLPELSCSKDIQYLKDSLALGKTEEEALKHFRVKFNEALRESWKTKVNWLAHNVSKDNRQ

[37] = biological target: EIF2AK2 (human) (UniProt P19525)
[38] = biological target: CDK18 (human) (UniProt Q07002)
[39] = biological target: ACVR1B (human) (UniProt P36896)
[40] = biological target: SYK (human) (UniProt P43405)

Sequence of EPHB4 (human) (P54760 whole entry, looked up): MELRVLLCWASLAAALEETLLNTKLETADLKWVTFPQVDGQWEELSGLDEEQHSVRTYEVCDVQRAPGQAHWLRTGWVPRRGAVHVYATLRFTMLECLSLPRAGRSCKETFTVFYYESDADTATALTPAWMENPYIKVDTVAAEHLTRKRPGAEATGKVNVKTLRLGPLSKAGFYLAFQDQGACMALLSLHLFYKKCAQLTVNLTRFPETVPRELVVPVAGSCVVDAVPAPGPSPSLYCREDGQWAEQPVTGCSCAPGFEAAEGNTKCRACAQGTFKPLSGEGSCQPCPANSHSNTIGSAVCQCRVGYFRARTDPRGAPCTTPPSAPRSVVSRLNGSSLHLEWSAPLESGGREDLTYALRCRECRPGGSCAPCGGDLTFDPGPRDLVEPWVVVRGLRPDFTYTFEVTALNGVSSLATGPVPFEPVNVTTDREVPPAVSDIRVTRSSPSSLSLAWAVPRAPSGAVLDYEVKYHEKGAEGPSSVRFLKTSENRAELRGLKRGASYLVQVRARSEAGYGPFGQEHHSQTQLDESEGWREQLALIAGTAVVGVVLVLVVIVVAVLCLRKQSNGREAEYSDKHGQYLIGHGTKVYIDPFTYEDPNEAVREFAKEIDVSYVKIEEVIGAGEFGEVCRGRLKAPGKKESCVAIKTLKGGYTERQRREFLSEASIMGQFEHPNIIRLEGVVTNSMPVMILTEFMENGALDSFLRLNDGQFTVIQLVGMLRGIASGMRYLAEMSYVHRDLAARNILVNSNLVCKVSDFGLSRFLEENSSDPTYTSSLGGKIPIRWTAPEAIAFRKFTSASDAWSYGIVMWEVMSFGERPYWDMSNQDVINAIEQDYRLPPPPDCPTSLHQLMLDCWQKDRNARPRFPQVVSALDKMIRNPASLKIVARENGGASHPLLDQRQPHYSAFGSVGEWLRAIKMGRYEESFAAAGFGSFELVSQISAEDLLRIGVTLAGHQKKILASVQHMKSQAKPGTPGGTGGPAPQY

Row | Structure (SMILES) | kinase still bound, per cent of control [1] | kinase still bound, per cent of control [2] | kinase still bound, per cent of control [3] | kinase still bound, per cent of control [4] | kinase still bound, per cent of control [5] | kinase still bound, per cent of control [6] | kinase still bound, per cent of control [7] | kinase still bound, per cent of control [8] | kinase still bound, per cent of control [9] | kinase still bound, per cent of control [10] | kinase still bound, per cent of control [11] | kinase still bound, per cent of control [12] | kinase still bound, per cent of control [13] | kinase still bound, per cent of control [14] | kinase still bound, per cent of control [15] | kinase still bound, per cent of control [16] | kinase still bound, per cent of control [17] | kinase still bound, per cent of control [18] | kinase still bound, per cent of control [19] | kinase still bound, per cent of control [20] | further results
1 | Cc1ccc2nc(NCCN)c3ncc(C)n3c2c1 | 85% | 100% | 100% | 100% | 100% | 90% | 8.8% | 100% | 100% | 100% | 100% | 94% | 100% | 100% | 84% | 100% | 82% | 100% | 100% | 100% | kinase still bound, per cent of control [21]: 53%; kinase still bound, per cent of control [22]: 68%; kinase still bound, per cent of control [23]: 100%; kinase still bound, per cent of control [24]: 47%; kinase still bound, per cent of control [25]: 79%; kinase still bound, per cent of control [26]: 100%; kinase still bound, per cent of control [27]: 90%; kinase still bound, per cent of control [28]: 100%; kinase still bound, per cent of control [29]: 79%; kinase still bound, per cent of control [30]: 93%; kinase still bound, per cent of control [31]: 100%; kinase still bound, per cent of control [32]: 100%; kinase still bound, per cent of control [33]: 100%; kinase still bound, per cent of control [34]: 100%; kinase still bound, per cent of control [35]: 87%; kinase still bound, per cent of control [36]: 99%; kinase still bound, per cent of control [37]: 100%; kinase still bound, per cent of control [38]: 100%; kinase still bound, per cent of control [39]: 97%; kinase still bound, per cent of control [40]: 100%
2 | C=CC(=O)Nc1cc(NC(=O)c2ccc(C)c(NC(=O)c3ccno3)c2)cc(C(F)(F)F)c1 | 95% | 40% | 87% | 100% | 100% | 100% | 97% | 100% | 95% | 93% | 100% | 100% | 9.8% | 100% | 83% | 93% | 100% | 90% | 100% | 100% | kinase still bound, per cent of control [21]: 96%; kinase still bound, per cent of control [22]: 100%; kinase still bound, per cent of control [23]: 96%; kinase still bound, per cent of control [24]: 92%; kinase still bound, per cent of control [25]: 95%; kinase still bound, per cent of control [26]: 82%; kinase still bound, per cent of control [27]: 93%; kinase still bound, per cent of control [28]: 100%; kinase still bound, per cent of control [29]: 99%; kinase still bound, per cent of control [30]: 100%; kinase still bound, per cent of control [31]: 93%; kinase still bound, per cent of control [32]: 93%; kinase still bound, per cent of control [33]: 84%; kinase still bound, per cent of control [34]: 58%; kinase still bound, per cent of control [35]: 100%; kinase still bound, per cent of control [36]: 100%; kinase still bound, per cent of control [37]: 100%; kinase still bound, per cent of control [38]: 91%; kinase still bound, per cent of control [39]: 100%; kinase still bound, per cent of control [40]: 100%
3 | Nc1ccc(-c2ccc3ncc4ccc(=O)n(-c5cccc(C(F)(F)F)c5)c4c3c2)cn1 | 97% | 99% | 100% | 100% | 100% | 63% | 97% | 97% | 100% | 100% | 100% | 100% | 86% | 85% | 94% | 100% | 91% | 48% | 100% | 43% | kinase still bound, per cent of control [21]: 81%; kinase still bound, per cent of control [22]: 100%; kinase still bound, per cent of control [23]: 63%; kinase still bound, per cent of control [24]: 13%; kinase still bound, per cent of control [25]: 100%; kinase still bound, per cent of control [26]: 100%; kinase still bound, per cent of control [27]: 100%; kinase still bound, per cent of control [28]: 100%; kinase still bound, per cent of control [29]: 100%; kinase still bound, per cent of control [30]: 59%; kinase still bound, per cent of control [31]: 100%; kinase still bound, per cent of control [32]: 86%; kinase still bound, per cent of control [33]: 100%; kinase still bound, per cent of control [34]: 100%; kinase still bound, per cent of control [35]: 96%; kinase still bound, per cent of control [36]: 14%; kinase still bound, per cent of control [37]: 70%; kinase still bound, per cent of control [38]: 100%; kinase still bound, per cent of control [39]: 96%; kinase still bound, per cent of control [40]: 100%
